Data reported in the supplement of paper PMC6045584.
± gives the standard deviation of the averaged measurements.

Experiments:
XAV-939 = compound: Oc1nc(-c2ccc(C(F)(F)F)cc2)nc2c1CSCC2 [XAV-939]; assay: surviving fraction relative to DMSO-only wells; higher = less growth inhibition; conditions: exposure time: 5 days
Summary of the method: (§1)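 Inhibitors were tested at 0.5, 1, 5, 10, 50, 100, 500 and 1000 nM, applied continuously for five days beginning 24 hours after log-phase tumour cells were seeded at 250–500 per well in 384-well plates. CellTiter-Glo luminescence served as the viability measure, expressed as surviving fraction against the median of DMSO-only wells. Each line, screened three times, was kept only with replicate Pearson r >0.7 and median Z' >0.3.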

TEMOZOLOMIDE = compound: Cn1nnc2c(C(N)=O)ncn2c1=O [TEMOZOLOMIDE]; assay: as above; conditions: exposure time: 5 days
Summary of the method: as §1

Test System | surviving fraction (XAV-939; 0.5 nM) | surviving fraction (XAV-939; 1 nM) | surviving fraction (XAV-939; 5 nM) | surviving fraction (XAV-939; 10 nM) | surviving fraction (XAV-939; 50 nM) | surviving fraction (XAV-939; 100 nM) | surviving fraction (XAV-939; 500 nM) | surviving fraction (XAV-939; 1000 nM) | surviving fraction (TEMOZOLOMIDE; 0.5 nM) | surviving fraction (TEMOZOLOMIDE; 1 nM) | surviving fraction (TEMOZOLOMIDE; 5 nM) | surviving fraction (TEMOZOLOMIDE; 10 nM) | surviving fraction (TEMOZOLOMIDE; 50 nM) | surviving fraction (TEMOZOLOMIDE; 100 nM) | surviving fraction (TEMOZOLOMIDE; 500 nM) | surviving fraction (TEMOZOLOMIDE; 1000 nM)
CAL72 BONE | 1.07 ± 0.023 | 1.05 ± 0.013 | 0.999 ± 0.015 | 0.976 ± 0.023 | 0.944 ± 0.012 | 0.957 ± 0.029 | 0.916 ± 0.038 | 0.9 ± 0.025 | 1.04 ± 0.056 | 0.996 ± 0.098 | 1.04 ± 0.083 | 1.02 ± 0.081 | 1.1 ± 0.05 | 1.09 ± 0.087 | 1.076 ± 0.0011 | 1.07 ± 0.094
CAL120 BREAST | 0.984 ± 0.027 | 1.02 ± 0.013 | 1.01 ± 0.019 | 0.969 ± 0.018 | 1.01 ± 0.021 | 1.011 ± 0.0096 | 0.951 ± 0.012 | 0.9582 ± 0.0029 | 0.948 ± 0.059 | 0.963 ± 0.033 | 0.99 ± 0.048 | 0.96 ± 0.075 | 0.976 ± 0.075 | 0.988 ± 0.016 | 0.988 ± 0.053 | 0.989 ± 0.025
CASKI CERVIX | 0.918 ± 0.017 | 0.944 ± 0.037 | 0.975 ± 0.011 | 0.997 ± 0.013 | 1.03 ± 0.028 | 1.06 ± 0.03 | 0.935 ± 0.037 | 0.965 ± 0.051 | 0.888 ± 0.013 | 0.88 ± 0.049 | 0.965 ± 0.044 | 1.01 ± 0.12 | 1 ± 0.023 | 1.04 ± 0.05 | 0.929 ± 0.072 | 1 ± 0.074
CHLA90 AUTONOMIC GANGLIA | 1.01 ± 0.071 | 1.04 ± 0.051 | 0.989 ± 0.031 | 0.997 ± 0.045 | 0.975 ± 0.019 | 0.948 ± 0.067 | 0.987 ± 0.072 | 0.933 ± 0.022 | 0.928 ± 0.039 | 0.975 ± 0.047 | 0.941 ± 0.053 | 0.96 ± 0.023 | 0.963 ± 0.068 | 1.03 ± 0.055 | 1.02 ± 0.087 | 1.03 ± 0.098
CME SYNOVIAL | 1.27 ± 0.24 | 1.2 ± 0.093 | 1.25 ± 0.16 | 1.3 ± 0.093 | 1.29 ± 0.14 | 1.3 ± 0.071 | 1.1 ± 0.03 | 0.952 ± 0.094 | 1.31 ± 0.12 | 1.21 ± 0.12 | 1.24 ± 0.033 | 1.33 ± 0.18 | 1.34 ± 0.12 | 1.46 ± 0.064 | 1.34 ± 0.027 | 1.39 ± 0.065
COLO320DM LARGE INTESTINE | 1.1 ± 0.051 | 1.14 ± 0.069 | 1.08 ± 0.15 | 0.997 ± 0.11 | 1.08 ± 0.013 | 0.994 ± 0.075 | 0.827 ± 0.071 | 0.805 ± 0.088 | 1.21 ± 0.13 | 1.1 ± 0.036 | 1.13 ± 0.055 | 1.17 ± 0.12 | 1.1 ± 0.035 | 1.142 ± 0.011 | 1.15 ± 0.014 | 1.06 ± 0.047
DU4475 BREAST | 1.02 ± 0.28 | 0.857 ± 0.17 | 0.884 ± 0.18 | 1.05 ± 0.12 | 1.07 ± 0.17 | 1.16 ± 0.18 | 1.15 ± 0.33 | 1.1 ± 0.25 | 0.877 ± 0.091 | 0.998 ± 0.053 | 0.973 ± 0.19 | 0.878 ± 0.093 | 0.851 ± 0.08 | 1.01 ± 0.2 | 0.972 ± 0.24 | 0.989 ± 0.067
H23 LUNG | 0.953 ± 0.035 | 1.03 ± 0.062 | 1.04 ± 0.071 | 1.08 ± 0.075 | 1.01 ± 0.037 | 0.992 ± 0.02 | 0.391 ± 0.041 | 0.318 ± 0.024 | 0.987 ± 0.04 | 1.01 ± 0.031 | 1.01 ± 0.053 | 1.06 ± 0.044 | 0.997 ± 0.025 | 1.01 ± 0.022 | 0.966 ± 0.066 | 1.02 ± 0.051
HCC78 LUNG | 0.9 ± 0.1 | 0.925 ± 0.12 | 1.09 ± 0.18 | 0.991 ± 0.13 | 0.983 ± 0.082 | 0.822 ± 0.16 | 0.286 ± 0.062 | 0.358 ± 0.08 | 0.804 ± 0.046 | 0.791 ± 0.14 | 0.941 ± 0.062 | 1.02 ± 0.069 | 0.984 ± 0.11 | 0.916 ± 0.14 | 0.907 ± 0.058 | 0.785 ± 0.18
HCC202 BREAST | 1.4 ± 0.094 | 1.23 ± 0.2 | 1.17 ± 0.094 | 0.972 ± 0.14 | 1.12 ± 0.18 | 0.905 ± 0.077 | 1.04 ± 0.2 | 0.953 ± 0.065 | 1.08 ± 0.35 | 1 ± 0.13 | 1.07 ± 0.32 | 0.9 ± 0.071 | 1.01 ± 0.17 | 1.29 ± 0.14 | 0.975 ± 0.035 | 1.254 ± 0.011
